Assay results as given in patent US12616681B2, “Compositions and methods for treating renal injury” (priority 2019, dated 2026).

Tests used:
Type in all cases: in vivo, C57/BL6 mice
[1] = test system: contrast-induced acute kidney injury (CIAKI) mice; experiment: CIAKI mouse model: AMP and adenosine levels in renal tissue; details: CIAKI mice, CM + drug, 48 h after CM
Experimental: 48 h after CM administration, serum and kidney tissues were harvested. The adenosine levels in the serum and kidney tissues were measured using high-performance liquid chromatography.

[2] = test system: contrast-induced acute kidney injury (CIAKI) mice; experiment: CIAKI mouse model: renal vasodilation in the outer medulla; details: CM + drug, 48 h after CM
Experimental: 48 h after CM injection, kidney tissues were harvested, fixed in 4% phosphate-buffered formalin, and embedded in paraffin. To quantify vasodilation, the inner arteriole area of the outer medulla was determined using α-SMA-stained sections. They were incubated for 1 h with an α-SMA antibody. 3,30-diamino-benzidine (0.7 g/tablet; Sigma-Aldrich) was added, followed by washing three times with PBS for 1 min each. After counterstaining with Mayer's hematoxylin, the inner areas of α-SMA-positive vessels in the outer medulla (25× magnification) were measured using ImageJ software. The results were expressed as the average area of all of the renal arteries in each outer medulla section.

[3] = test system: contrast-induced acute kidney injury (CIAKI) mice; experiment: CIAKI mouse model: renal blood flow (laser Doppler flux); details: CM + drug, 48 h after CM
Experimental: Total RBF was assessed by measuring renal Doppler flux using noninvasive laser Doppler flowmetry (PeriFlux System 5000, Perimed AB, Sweden). Laser Doppler probes were placed on the kidney surface to measure the renal flux. The flux was measured 48 h after CM administration. The relative increase represented the percentage increase in renal blood flow from baseline to peak for each test. Statistical significance was set as p<0.05.

[4] = test system: mice with ischemic AKI (bilateral renal IRI); experiment: Renal IRI model: cAMP, AMP and adenosine levels
Experimental: After reperfusion for 24 h, kidney tissues were harvested, homogenized in 10 volumes of 0.1 M HCl, and centrifuged for 10 min at 12,000 rpm. cAMP levels in kidney tissues and serum were measured using a cAMP Complete ELISA kit (Enzo Life Science, Farmingdale, NY). AMP and adenosine in kidney tissue were assessed by Agilent 6410 LC-MS/MS. Serum adenosine was measured using an assay kit (Abnova, Walnut, CA).

[5] = test system: mice with ischemic AKI (bilateral renal IRI); experiment: Renal IRI model: oxidative stress (MDA in kidney tissue); details: single pre-IRI dose; vehicle peaked at 2 h at 48%
Experimental: Reactive oxygen species (ROS) levels were determined by measurement of malondialdehyde (MDA), the end product of lipid peroxidation in kidney lysates. Free MDA reacts with thiobarbituric acid (TBA) at 95° C. to generate an MDA-TBA adduct, which can be quantified colorimetrically at a wavelength of 532 nm. MDA levels were measured in kidney lysates using a lipid peroxidation (MDA) assay kit (Abcam, Cambridge, UK). Results were corrected for total protein level and are expressed as […].

[6] = test system: mice with ischemic AKI (bilateral renal IRI); experiment: Renal IRI model: necrotic and apoptotic cell death, gross pathology; details: 24 h after renal IRI; 5 mg/kg ip three times
Excerpt: To evaluate necrosis, 5-μm-thick paraffin sections were stained with hematoxylin and eosin. Tubular injury of individual slides was scored semi-quantitatively according to a scoring system by a pathologist in a blinded manner. The scoring system was as follows: 0, no damage; 1, patchy isolated unicellular necrosis; 2, tubular necrosis <25%; 3, tubular necrosis 25-50%; and 4, tubular necrosis >50%. To analyze the frequency of apo ptosis, 5-μm-thick paraffin sections were subjected to a TUNEL assay (Millipore, Temecula, CA) according to the manufacturer's protocol. TUNEL-positive cells were counted in at least five separate fields (64 magnification) in the outer medulla, and the apoptosis index (in %, number of apoptosis cells/total number of cells) was calculated using GENASIS software.

[7] = test system: mice with ischemic AKI (bilateral renal IRI); experiment: Renal IRI model: renal and serum PGE2 after a single pre-IRI dose
Experimental: After reperfusion for 24 h, kidney tissues (˜20 mg) were homogenized in cold PBS containing indomethacin (10 μg/mL) and then centrifuged for 10 min at 12,000 rpm. Protein concentrations of supernatant were determined by BCA assay (ThermoFisher Scientific, Rockford, IL). The PGE2 level was measured using a PGE2 ELISA kit (R&D Systems, Minneapolis, MN) in triplicate. PGE2 levels were expressed as nanograms of PGE2 per milligram of protein. Renal function was assessed by determining the serum levels of blood urea nitrogen (BUN; Abcam), serum creatinine (Agilent 6410 LC-MS/MS, Agilent, Santa Clara, CA), lipocalin-2 (R&D Systems), and kidney injury molecule-1 (KIM-1; R&D Systems) after reperfusion for 24 h. Measurement of serum creatinine was by HPLC. Serum creatinine was assessed using an Agilent 6410 LC-MS/MS system coupled with an Agilent 1200 series HPLC system (Agilent). The sample preparation for serum creatinine was that 50 μL of serum samples were mixed with 100 μL of acetonitrile that contained creatinine-d3 as an internal standard (5 μg/mL). The mixture was centrifuged at 13,000 rpm for 10 min after vigorous vortex, and 1 μL of supernatant was then injected into the LC-MS/MS system. The chromatography separation was performed on a Hypersil GOLD C18 column (150×2.1 mm, 3 m, Thermo Scientific) using a mobile phase of 0.1% formic acid solution and acetonitrile [70:30 (vol/vol)]. The flow rate was 0.2 mL/min. Electrospray ionization was performed in the positive ion mode. The capillary voltage was set at 4,000 V. Nitrogen as the nebulizing gas was set at 15 psi, and the drying gas temperature was set at 300° C., with a flow rate of 6 L/min. The multiple-reaction monitoring mode using specific precursor/production transition was used for quantification. Detection of ions was performed by monitoring m/z 114.1→44.1 for creatinine and 117.1→77.1 for creatinine-d3. The collision energies were 10 and 15 eV for creatinine and creatinine-d3, respectively. The peak areas for all analytes were integrated automatically using Agilent Mass Hunter Analysis software (version B.01.04).

CCCC[S+]([O-])c1sc2nc(-c3cccs3)cc(-c3ccccc3)c2c1N (stereo not drawn) [SW033291]
AMP in renal tissue [1]: 15.60 ± 1.26 ng/mL | adenosine in renal tissue [1]: 2.65 ± 0.15 ng/mL | average renal arteriole area in the outer medulla [2]: 1132.97±159.86 μm^2 | RBF (renal Doppler flux) [3]: 635.2±11.10 | IRI-induced decrease of adenosine in the kidney ([4]; 24 h after IRI): reversed | AMP in kidney tissue ([4]; 24 h post-IRI): increased levels | serum adenosine ([4]; 24 h post-IRI): Increased | renal cAMP ([4]; 24 h post-IRI, vs sham mice): elevated over sham mice | MDA increase above baseline after renal IRI [5]: 14% | count of TUNEL-positive apoptotic cells [6]: reducing | histological renal injury score [6]: reducing | tissue congestion in the outer medulla (gross pathology) [6]: ameliorated | renal PGE2 levels ([7]; 24 h, single pretreatment dose): significantly decreased | serum PGE2 levels ([7]; 24 h, single pretreatment dose): significantly decreased | post-IRI peaks of renal PGE2 (immediate and 14 h) ([7]; single pre-IRI dose): substantially block
